In patent publication US20260297065A1, “AROMATIC SUBSTITUENT-CONTAINING (HETERO) ARYL-IMIDAZOLE COMPOUND, AND PREPARATION METHOD THEREFOR AND USE THEREOF” (OPEN SOURCE THERAPEUTICS, priority 2022, published 2026):

Biological target: T1, soluble epoxide hydrolase (sEH) (Homo sapiens, UniProt P34913)
T1 sequence (P34913 1-555): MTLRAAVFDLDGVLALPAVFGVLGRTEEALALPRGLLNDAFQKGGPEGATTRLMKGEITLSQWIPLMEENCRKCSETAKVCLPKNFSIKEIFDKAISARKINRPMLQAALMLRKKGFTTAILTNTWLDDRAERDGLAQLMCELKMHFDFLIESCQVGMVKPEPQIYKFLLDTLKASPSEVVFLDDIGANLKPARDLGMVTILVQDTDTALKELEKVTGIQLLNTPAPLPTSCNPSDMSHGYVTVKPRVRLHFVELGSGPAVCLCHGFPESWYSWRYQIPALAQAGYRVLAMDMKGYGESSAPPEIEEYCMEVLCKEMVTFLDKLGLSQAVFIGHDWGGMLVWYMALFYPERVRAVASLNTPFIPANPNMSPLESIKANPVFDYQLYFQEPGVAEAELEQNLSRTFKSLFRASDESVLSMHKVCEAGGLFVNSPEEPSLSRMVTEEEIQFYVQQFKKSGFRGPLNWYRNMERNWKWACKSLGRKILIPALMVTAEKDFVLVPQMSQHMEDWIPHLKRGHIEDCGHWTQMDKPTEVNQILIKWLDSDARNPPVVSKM
Experiment: in vitro biochemical activity test, sEH enzyme inhibition with EET substrate (LC-MS)
Settings: 90 min pre-incubation at room temperature, 60 min reaction
Description: This example relates to the relationship between the structure and activity of (hetero)aryl imidazole compounds containing an aromatic substituent. Specifically, the biochemical activity of the (hetero)aryl imidazole compounds containing an aromatic substituent described in Example 1 as sEH enzyme inhibitors was evaluated by in vitro activity test experiments.
The experimental procedures for evaluating in vitro biochemical activity were described below.
The substrate used in the evaluation experiment was epoxyeicosatrienoic acid (EET). The solutions used in the evaluation experiments were Bis/Tris HCl 25 mM pH 7.0, Bis/Tris HCl 25 mM pH 7.0 containing 0.1 mg/mL BSA was used as buffer A, and Bis/Tris HCl 25 mM pH 7.0 containing 36.3 mM ZnSO4 was used as buffer B.
The specific steps of the evaluation experiment were as follows. 79 μL of buffer A was added to each well in a black 96-well plate and then 1 μL solution of the aromatic substituent-containing (hetero)aryl imidazole compound was added. Then, 10 μL sEH (1 μM) buffer A solution was added to the wells. After pre-incubation at room temperature for 90 min, 10 μL EET (10 μM) buffer A solution was added to trigger the reaction. After the mixture was allowed to react […] for 60 min, 15 μL buffer B and 180 μL acetonitrile were added to quench the reaction, followed by high-speed centrifugation and filtration for later use.
LC-MS was used to detect the concentration of EET in the samples. The final IC50 was calculated based on three independent experiments using Graphpad Prism software.

Row | SMILES | IC50
1 | CN(C)S(=O)(=O)c1ccc(-c2nc3cc(-c4ccncc4Cl)c(F)cc3[nH]2)cc1 [Compound 1, 4-(6-(3-chloropyridin-4-yl)-5-fluoro-1H-benzo[d]imidazol-2-yl)-N,N-dimethylbenzene-sulfonamide] | 0.11 nM
2 | COc1ccc(-c2nc3cc(-c4ccncc4Cl)c(F)cc3[nH]2)cc1F [Compound 2, 6-(3-chloropyridin-4-yl)-5-fluoro-2-(3-fluoro-4-meth-oxyphenyl)-1H-benzo[d] imidazole] | 11 nM
3 | Cc1ccc(-c2cc3nc(-c4ccc(C(=O)N5CCC[C@@H](C(N)=O)C5)cc4)[nH]c3cc2F)c(Cl)n1 [Compound 3, (R)-1-(4-(6-(2-chloro-6-meth-ylpyridin-3-yl)-5-fluoro-1H-benzo[d]imidazol-2-yl)benzo-yl)piperidine-3-carboxamide] | 7.6 nM
4 | Cc1ncc(-c2cc3nc(-c4ccc(S(C)(=O)=O)cc4)[nH]c3cc2Cl)c(Cl)n1 [Compound 4, 5-chloro-6-(4-chloro-2-meth-ylpyrimid-5-yl)-2-(4-(methyl-sulfonyl)phenyl)-1H-benzo[d] imidazole] | 0.99 nM
5 | Cc1ncc(-c2cc3nc(-c4ccc(C(F)(F)F)cc4)[nH]c3c(F)c2F)c(C)n1 [Compound 5] | 0.074 nM
6 | CNc1nc(C)ncc1-c1cc2nc(-c3ccc(C(F)(F)F)cc3)[nH]c2cc1F [Compound 7, 5-(5-fluoro-2-(4-(trifluoro-methyl)phenyl)-1H-benzo[d]imidazol-6-yl)-N,2-dimethyl-pyrimidine-4-amine] | 0.11 nM
7 | Cc1nc(N(C)C)ncc1-c1cc2nc(-c3ccc(C(F)(F)F)cc3)[nH]c2cc1F [Compound 9, 5-(5-fluoro-2-(4-(trifluoro-methyl)phenyl)-1H-benzo[d]imidazol-6-yl)-N,N,4-trimeth-ylpyrimidine-2-amine] | 0.11 nM
8 | Cc1cnccc1-c1cc2nc(-c3ccc(C(F)F)cc3)[nH]c2cc1F [Compound 11, 2-(4-(difluoromethyl)phenyl)-5-fluoro-6-(3-methylpyridin-4-yl)-1H-benzo[d]imidazole] | 0.14 nM
9 | Cc1ccc(-c2cc3nc(-c4ccc(C(F)(F)F)cc4)[nH]c3cc2F)c(Cl)n1 [Compound 12, 6-(2-chloro-6-methylpyridin-3-yl)-5-fluoro-2-(4-(trifluoro-methyl)phenyl)-1H-benzo[d] imidazole] | 0.058 nM
10 | Cc1cc(-c2cc3nc(-c4ccc(C(F)(F)F)cc4)[nH]c3cc2F)n(C)n1 [Compound 13, 6-(1,3-dimethyl-1H-pyrazol-5-yl)-5-fluoro-2-(4-(trifluoro-methyl)phenyl)-1H-benzo[d] imidazole] | 0.4 nM
11 | Cc1ncc(-c2ccc3[nH]c(-c4ccc(C(F)(F)F)cc4)nc3c2F)cn1 [Compound 14, 7-fluoro-6-(2-methylpyrimid-5-yl)-2-(4-(trifluoromethyl)-phenyl)-1H-benzo[d]imidazole] | 0.94 nM
12 | Cc1ccc(-c2cc3nc(-c4ccc(C(F)(F)F)cc4)[nH]c3cc2F)cn1 [Compound 15, 5-fluoro-6-(6-methylpyridin-3-yl)-2-(4-(trifluoromethyl)-phenyl)-1H-benzo[d]imidazole] | 0.62 nM
13 | Fc1cc2[nH]c(-c3ccc(C(F)(F)F)cc3)nc2cc1-c1cnc(N2CCOCC2)nc1 [Compound 16, 4-(5-(5-fluoro-2-(4-(trifluoro-methyl)phenyl)-1H-benzo[d]imidazol-6-yl)pyrimidine-2-yl)morpholine] | 0.14 nM
14 | CN1CCN(c2ncc(-c3cc4nc(-c5ccc(C(F)(F)F)cc5)[nH]c4cc3F)cn2)CC1 [Compound 17, 5-fluoro-6-(2-(4-methylpiper-azine-1-yl)pyrimid-5-yl)-2-(4-(trifluoromethyl)phenyl)-1H-benzo[d]imidazole] | 4.8 nM
15 | CC(C)n1nccc1-c1cc2nc(-c3ccc(S(C)(=O)=O)cc3)[nH]c2cc1F [Compound 19, 5-fluoro-6-(1-isopropyl-1H-pyrazol-5-yl)-2-(4-(methyl-sulfonyl)phenyl)-1H-benzo[d] imidazole] | 0.98 nM
16 | CS(=O)(=O)c1ccc(-c2nc3cc(-c4cnc(N5CCOCC5)nc4)c(F)cc3[nH]2)cc1 [Compound 20, 4-(5-(5-fluoro-2-(4-(methyl-sulfonyl)phenyl)-1H-benzo[d]imidazol-6-yl)pyrimidine-2-yl)morpholine] | 2.21 nM
17 | CC(C)n1nccc1-c1cc2nc(-c3ccc(S(=O)(=O)N(C)C)cc3)[nH]c2cc1F [Compound 21, 4-(5-fluoro-6-(1-isopropyl-1H-pyrazol-5-yl)-1H-benzo[d]imidazol-2-yl)-N,N-dimethyl-benzenesulfonamide] | 0.051 nM

Now from value to molecule:

Row | IC50 | SMILES
18 | 0.1 nM | Cc1nc(N)ncc1-c1cc2nc(-c3ccc(S(=O)(=O)N(C)C)cc3)[nH]c2cc1F [Compound 22, 4-(6-(2-amino-4-methylpyr-imid-5-yl)-5-fluoro-1H-benzo [d]imidazol-2-yl)-N,N-dimeth-yl-benzenesulfonamide]
19 | 0.29 nM | CC(=O)n1nc(C)c(-c2cc3nc(-c4ccc(C(F)(F)F)cc4)[nH]c3cc2F)c1C [Compound 23, 1-(4-(6-fluoro-2-(4-(trifluoro-methyl)phenyl)-1H-benzo[d]imidazol-5-yl)-3,5-dimethyl-1H-pyrazol-1-yl)ethan-1-one]
20 | 0.2 nM | Cc1nn(S(C)(=O)=O)c(C)c1-c1cc2nc(-c3ccc(C(F)(F)F)cc3)[nH]c2cc1F [Compound 24, 6-(3,5-dimethyl-1-(methyl-sulfonyl)-1H-pyrazo1-4-yl)-5-fluoro-2-(4-(trifluoromethyl)-phenyl)-1H-benzo[d]imidazole]
21 | 0.045 nM | CC(C)n1nccc1-c1cc2nc(-c3ccc(S(=O)(=O)N(C)C)cc3)[nH]c2c(F)c1F [Compound 25, 4-(4,5-difluoro-6-(1-isopropyl-1H-pyrazol-5-yl)-1H-benzo[d]imidazol-2-yl)-N,N-dimethyl-benzenesulfonamide]
22 | 0.081 nM | Cc1nc(N2CCOCC2)ncc1-c1cc2nc(-c3ccc(S(=O)(=O)N(C)C)cc3)[nH]c2cc1F [Compound 26, 4-(5-fluoro-6-(4-methyl-2-morpholinopyrimid-5-yl)-1H-benzo[d]imidazol-2-yl)-N,N-dimethylbenzenesulfonamide]
23 | 0.056 nM | Cc1nc(N)ncc1-c1cc2nc(-c3ccc(S(=O)(=O)N(C)C)cc3)[nH]c2c(F)c1F [Compound 27, 4-(6-(2-amino-4-methylpyr-imid-5-yl)-4,5-difluoro-1H-benzo[d]imidazol-2-yl)-N,N-dimethylbenzenesulfonamide]
24 | 0.046 nM | Cc1ncc(-c2cc3nc(-c4ccc(S(=O)(=O)N(C)C)cc4)[nH]c3c(F)c2F)c(Cl)n1 [Compound 28, 4-(6-(4-chloro-2-methylpyr-imid-5-yl)-4,5-difluoro-1H-benzo[d]imidazol-2-yl)-N,N-dimethylbenzenesulfonamide]
25 | 0.083 nM | Cc1ncc(-c2cc3nc(-c4ccc(S(=O)(=O)N(C)C)cc4)[nH]c3cc2F)c(C)n1 [Compound 29, 4-(6-(2,4-dimethylpyrimid-5-yl)-5-fluoro-1H-benzo[d]imidazol-2-yl)-N,N-dimethyl-benzenesulfonamide]
26 | 0.1 nM | Cc1ncc(-c2cc3nc(-c4ccc(S(=O)(=O)N(C)C)cc4)[nH]c3cc2Cl)c(Cl)n1 [Compound 30, 4-(5-chloro-6-(4-chloro-2-methylpyrimid-5-yl)-1H-benzo [d]imidazol-2-yl)-N,N-dimeth-ylbenzenesulfonamide]
